Data taken from patent US5792767A, “Bicyclic substituted hexahydrobenz [e] isoindole alpha-1 adrenergic antagonists” (priority 1995, dated 1998).
Where a name gives a salt, the structure may show the parent alone.

Experiments:
[1] = molecular target: T1, α-1B adrenoceptor (rat spleen) (Rattus norvegicus, UniProt P15823); assay: Functional antagonism of phenylephrine-induced contraction of rat spleen; assay type: cell-based; conditions: vs phenylephrine-induced contraction, Schild plot; for Kb: read-out: pA2 Rat Spleen [α-1B] (converted)
T1 construct: PE-induced contraction of rat spleen; from tissue; host or cells: isolated rat spleen
T1 sequence (P15823 1-515): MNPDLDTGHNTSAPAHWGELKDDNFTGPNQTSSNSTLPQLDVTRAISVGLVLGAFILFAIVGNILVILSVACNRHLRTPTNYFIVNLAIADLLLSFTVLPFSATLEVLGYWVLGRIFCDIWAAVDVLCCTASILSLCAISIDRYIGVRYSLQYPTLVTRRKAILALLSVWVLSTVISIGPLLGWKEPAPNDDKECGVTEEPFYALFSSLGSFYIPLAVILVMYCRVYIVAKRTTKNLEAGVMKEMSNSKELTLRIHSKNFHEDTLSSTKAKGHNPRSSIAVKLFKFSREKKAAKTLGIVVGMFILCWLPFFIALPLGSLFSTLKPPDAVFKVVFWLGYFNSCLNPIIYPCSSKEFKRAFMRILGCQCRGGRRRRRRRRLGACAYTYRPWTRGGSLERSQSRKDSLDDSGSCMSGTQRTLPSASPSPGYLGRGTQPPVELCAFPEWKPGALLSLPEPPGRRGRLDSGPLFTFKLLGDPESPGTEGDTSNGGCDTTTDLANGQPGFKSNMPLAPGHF
Excerpt: (§1) Functional assays indicative of pharmacologically defined α-1 adrenoceptors were used to further characterize compounds. Inhibition of phenylephrine (PE)-induced contraction of canine prostate smooth muscle can be correlated with α-1A adrenoceptor activation. […] For each of these models, agonist dose response curves were repeated against increasing concentrations of test agent to derive a Schild plot [log ([…]) against log (molarity of test agent)] to determine the pA2.

[2] = molecular target: T2, α-1A adrenoceptor (dog prostate); assay: Functional antagonism of phenylephrine-induced contraction of canine prostate strips; assay type: cell-based, dog (canine); conditions: vs phenylephrine-induced contraction, Schild plot; read-out: pA2 Dog Prostate [α-1A] (converted)
T2 construct: from tissue; host or cells: canine prostate strips
T2 sequence (P35348 whole entry): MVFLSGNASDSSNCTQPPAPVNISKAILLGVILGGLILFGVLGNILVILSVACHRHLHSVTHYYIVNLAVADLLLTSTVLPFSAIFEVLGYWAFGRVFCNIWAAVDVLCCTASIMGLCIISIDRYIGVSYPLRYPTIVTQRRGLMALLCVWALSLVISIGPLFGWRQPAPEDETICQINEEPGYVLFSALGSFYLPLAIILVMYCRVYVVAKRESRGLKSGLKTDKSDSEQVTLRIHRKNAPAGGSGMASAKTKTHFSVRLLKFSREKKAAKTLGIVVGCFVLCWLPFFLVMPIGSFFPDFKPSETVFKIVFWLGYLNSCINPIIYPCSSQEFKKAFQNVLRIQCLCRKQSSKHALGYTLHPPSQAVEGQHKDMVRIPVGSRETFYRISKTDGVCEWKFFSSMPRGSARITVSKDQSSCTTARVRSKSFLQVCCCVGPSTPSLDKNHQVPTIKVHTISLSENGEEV
Excerpt: Canine prostate strips were used in vitro as previously described (Hieble, J. P., Boyce, A. J. and Caine, M., Fed. Proc., 45: 2609-2614 (1986)), to determine antagonist potencies against phenylephrine-induced contractions.
as §1

[3] = molecular target: T3, α-1A adrenoceptor (rat vas deferens) (Rattus norvegicus, UniProt P43140); assay: Functional antagonism of phenylephrine-induced contraction of rat vas deferens; assay type: cell-based; conditions: vs phenylephrine-induced contraction, Schild plot; read-out: pA2 Rat Vas Deferens [α-1A] (converted)
T3 construct: PE-induced contraction of rat vas deferens; from tissue; host or cells: isolated rat vas deferens
T3 sequence (P43140 1-466): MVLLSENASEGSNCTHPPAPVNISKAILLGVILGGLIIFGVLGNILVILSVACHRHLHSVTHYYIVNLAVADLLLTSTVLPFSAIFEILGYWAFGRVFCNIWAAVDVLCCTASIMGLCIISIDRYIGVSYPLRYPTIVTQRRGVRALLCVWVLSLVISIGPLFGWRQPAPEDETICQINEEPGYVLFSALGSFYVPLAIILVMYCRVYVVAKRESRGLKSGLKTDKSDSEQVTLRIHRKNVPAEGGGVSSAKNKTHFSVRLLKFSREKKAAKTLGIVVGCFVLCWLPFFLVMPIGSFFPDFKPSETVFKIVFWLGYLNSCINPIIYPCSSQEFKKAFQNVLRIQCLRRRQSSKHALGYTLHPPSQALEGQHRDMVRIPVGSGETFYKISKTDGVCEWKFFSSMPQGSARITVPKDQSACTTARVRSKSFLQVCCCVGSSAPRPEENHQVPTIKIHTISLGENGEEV
Excerpt: as §1

Row | Compound | Kb [1] | Kb [2] | Kb [3] | pA2 Rat Spleen [α-1B] [1]
1 | COc1cccc2c1CC[C@H]1CN(CCn3c(=O)[nH]c4c(C)csc4c3=O)C[C@@H]21 (relative stereo) [Example 2, hydrochloride] | 6.92 nM | 0.692 nM | 3.98 nM | –
2 | COc1cccc2c1CC[C@H]1CN(CCn3c(=O)[nH]c4sccc4c3=O)C[C@@H]21 (relative stereo) [Example 3, hydrochloride] | 12.3 nM | 2.09 nM | 4.68 nM | –
3 | COc1cccc2c1CC[C@H]1CN(CCn3c(=O)[nH]c4ccsc4c3=O)C[C@@H]21 (relative stereo) [Example 5, hydrochloride] | 4.37 nM | 0.692 nM | 6.46 nM | –
4 | COc1cccc2c1CC[C@H]1CN(CCn3c(=O)[nH]c4cccc(C)c4c3=O)C[C@@H]21 (relative stereo) [Example 12, hydrochloride] | 6.76 nM | 21.4 nM | 8.51 nM | –
5 | COc1cccc2c1CC[C@H]1CN(CCn3c(=O)[nH]c4sccc4c3=O)C[C@@H]21 [Example 13, hydrochloride] | 4.27 nM | 0.851 nM | 7.59 nM | –
6 | CCOC(=O)c1ccc2c(=O)n(CCN3C[C@@H]4CCc5c(OC)cccc5[C@@H]4C3)c(=O)[nH]c2c1 [Example 71, hydrochloride] | – | 3.55 nM | – | –
7 | COc1cccc2c1CC[C@H]1CN(CCn3c(=O)[nH]c4cc(NS(C)(=O)=O)ccc4c3=O)C[C@@H]21 [Example 76, 3-[2-((3aR,9bR)cis-6-Methoxy-2,3,3a,4,5,9b-hexahydro-1WH-benz[e]isoindol-1-yl)lethyl]-7-methanesulfamlquinazoline-2,4(1H,3H)-dione hydrochloride] | – | 1.86 nM | – | –
8 | COc1cccc2c1CC[C@H]1CN(CCn3c(=O)[nH]c4c(-c5ccccc5C)csc4c3=O)C[C@@H]21 [Example 84, hydrochloride] | – | 8.13 nM | – | –
9 | COc1ccccc1-c1csc2c(=O)n(CCN3C[C@@H]4CCc5c(OC)cccc5[C@@H]4C3)c(=O)[nH]c12 [Example 85, 3-[2-((3aR,9bR)cis-6-Methoxy-2,3,3a,4,5,9b-hexahydro-[1H]-benz[e]isoindol-1-yl)ethyl]-7-(2-methoxyphenyl)thieno[3.2-d]pyrimidine-2,4(1H,3H)-dione hydrochloride] | – | 2.82 nM | – | –
10 | COc1cccc2c1CC[C@H]1CN(CCn3c(=O)[nH]c4nccnc4c3=O)C[C@@H]21 [Example 87, 3-[2-((3aR,9bR)cis-6-Methoxy-2,3 3a,4,5,9b-hexahydro-[1H]-benz[e]isoindol-1-yl)ethyl]-2,4pteridinedione hydrochloride] | – | 1.29 nM | – | –
11 | COc1cccc2c1CC[C@H]1CN(CCn3c(=O)[nH]c4ncncc4c3=O)C[C@@H]21 [Example 88, 3-[2-((3aR,9bR)cis-6-Methoxy-2,3,3a,4,5,9b-hexahydro-[1H]-benz[e]isoindol-1-yl)ethyl]-p-rimidino[4,5-d]pyrimidine-2,4(1H,3H)-dione hydrochloride] | – | 1.86 nM | – | –

Continued, values first:

Row | Kb [1] | Kb [2] | Kb [3] | pA2 Rat Spleen [α-1B] [1] | Compound
12 | 5.5 nM | 0.457 nM | 3.02 nM | – | COc1cccc2c1CC[C@H]1CN(CCn3c(=O)[nH]c4cscc4c3=O)C[C@@H]21 (relative stereo) [Example 8, 3-[2-(cis-6-Methoxy-2,3,3a,4,5,9b-hexahydro-[1H]-benz[e]isoindol-1-yl)ethyl]-thieno[3,4d]pyrimidine-2,4(1H,3H)-dione hydrochloride]
13 | 8.91 nM | 0.407 nM | 2.4 nM | – | COc1cccc2c1CC[C@H]1CN(CCn3c(=O)[nH]c4c(OC)cccc4c3=O)C[C@@H]21 (relative stereo) [Example 9, 3-[2-(cis-6-Methoxy-2,3,3a,4,5,9b-hexahydro-[1H]-benz[e]isoindol-1-yl)ethyl]-8-methoxy-quinazoline-2,4(1H,3H)-dione hydrochloride]
14 | 129 nM | – | – | – | COc1cc2[nH]c(=O)n(CCN3C[C@@H]4CCc5c(OC)cccc5[C@@H]4C3)c(=O)c2cc1OC (relative stereo) [Example 10, hydrochloride]
15 | 20.4 nM | – | 1.12 nM | – | COc1cc2ncn(CCN3C[C@@H]4CCc5c(OC)cccc5[C@@H]4C3)c(=O)c2cc1OC (relative stereo) [Example 33, 3-[2-(cis-6-Methoxy-2,3,3a,4,5,9b-hexahydro-[1H]-benz[e]isoindol-1-yl)ethyl]-6,7-dimethoxy-quinazoline-4(3H)-one dihydrochloride]
16 | – | – | – | 7.52 | COc1cc2[nH]c(=O)n(CCN3C[C@@H]4CCc5c(OC)cccc5[C@@H]4C3)c(=O)c2cc1OC [Example 39, hydrochloride]
17 | 39.8 nM | – | 5.75 nM | – | COc1cc2ncn(CCN3C[C@@H]4CCc5c(OC)cccc5[C@@H]4C3)c(=O)c2cc1OC [Example 42, dihydrochloride]
18 | – | 4.68 nM | – | – | COc1cc2[nH]c(=O)n(CCCCN3C[C@@H]4CCc5cccc(OC)c5[C@@H]4C3)c(=O)c2cc1OC [Example 67, hydrochloride]
19 | – | 0.575 nM | – | – | COC(=O)c1ccc2c(=O)n(CCN3C[C@@H]4CCc5c(OC)cccc5[C@@H]4C3)c(=O)[nH]c2c1 [Example 69, hydrochloride]
20 | – | 1.12 nM | – | – | COc1cccc2c1CC[C@H]1CN(CCn3c(=O)[nH]c4cc(C(=O)O)ccc4c3=O)C[C@@H]21 [Example 70, hydrochloride]
21 | – | 1.23 nM | – | – | COc1cccc2c1CC[C@H]1CN(CCn3c(=O)[nH]c4cc(C(=O)OC(C)C)ccc4c3=O)C[C@@H]21 [Example 73, hydrochloride]
22 | – | 1.7 nM | – | – | COc1cccc2c1CC[C@H]1CN(CCn3c(=O)[nH]c4cc([N+](=O)[O-])ccc4c3=O)C[C@@H]21 [Example 74, hydrochloride]
23 | – | 0.661 nM | – | – | COc1cccc2c1CC[C@H]1CN(CCn3c(=O)[nH]c4cc(NC(C)=O)ccc4c3=O)C[C@@H]21 [Example 75, 3-[2-((3aR,9bR)cis-6-Methoxy-2,3,3a,4,5,9b-hexahydro-[1H]-benz[e]isoindolyl-1-yl)ethyl]-7-acetamidoquinazoline-2,4(1H,3H)-dione hydrochloride]
24 | 2.95 nM | 0.398 nM | 0.479 nM | – | COc1cccc2c1CC[C@H]1CN(CCn3c(=O)[nH]c4c(C)c(OC)ccc4c3=O)C[C@@H]21 [Example 77, 3-[2-((3aR,9bR)cis-6-Methoxy-2,3,3a,4,59b-hexahydro-[1H]-benz[e]isoindol-1-yl)ethyl]-7-methoxy-8-methyl-quinazoline-2(1H,3H)-dione hydrochloride]
25 | – | 0.977 nM | – | – | COc1cccc2c1CC[C@H]1CN(CCn3c(=O)[nH]c4ccccc4c3=O)C[C@@H]21 [Example 79, hydrochloride]
26 | 11.7 nM | 0.631 nM | 0.891 nM | – | COc1cccc2c1CC[C@H]1CN(CCn3c(=O)[nH]c4c(C)c(C)ccc4c3=O)C[C@@H]21 [Example 80, 3-[2-((3aR.9bR)cis-6-Methoxy-2,3,3a,4,5,9b-hexahydro-[1H-benz[e]isoindol-1-yl)ethyl]-7.8-dimethylquinazoline-2,4(1H,3H)-dione hydrochloride]
27 | 120 nM | 11.2 nM | 8.51 nM | – | CCc1cccc2c1CC[C@H]1CN(CCn3c(=O)[nH]c4cc(OC)c(OC)cc4c3=O)C[C@@H]21 [Example 83, hydrochloride]
